Results taken from patent US6723364B1, “Fog treatment method using a liquid composition for treating fruits and vegetables and implementing device” (Xeda International, priority 1998, dated 2004).
Converted amounts (≈) assume the structure as drawn.

How the values were obtained:
Format in all cases: cell-based
[1] = test system: Erwinia carotovora; test: Bactericidal activity in vitro in LB agar medium; conditions: 28° C.
Procedure: The bactericidal activity of eugenol and isoeugenol was evaluated in vitro and compared with that of other terpenes.
The culture medium used is the following LB medium:
Bactotryptone: 1% by weight
Yeast extract: 0.5% by weight
A suspension of bacteria at 10^6 CFU/ml was prepared in sterilized water from the LB medium. 200 μl of this bacterial suspension were added to 20 ml of presterilized LB culture medium brought to 55° C. The tested terpene is then added to the culture medium. After agitation, the medium is immediately divided among Petri dishes. The medium solidifies on cooling.
Incubation is carried out at 28° C. when the bacterium is Erwinia carotovora and at 37° C. when the bacterium is Escherichia coli.
The growth of mould in the culture medium is observed. The same experiment is carried out in the absence of terpene (control experiment).
The results are evaluated using the following assessment scale:
++: mould growth identical to the control
+: mould present with a marked reduction in growth with respect to the control
: complete absence of growth.
The results obtained for 3 different concentrations, namely 20, 80 and 320 μg/ml, in the case of the bacterium Erwinia carotovora are summarized in Table 7.
The protocol used is that described above.

[2] = test system: Penicillium expansum; test: Fungicidal activity in vitro: mycelial growth on Cristomalt agar; conditions: PE
Procedure: (§1) The Cristomalt medium used for the evaluations of the fungicidal activities comprises 0.1% of Cristomalt (malt extract) and 0.2% of agar.
(§2) This culture medium is, after sterilization, brought to 55° C. The terpene compound tested is then introduced in the pure form into the culture medium under warm conditions. Immediately after agitating, the medium, enriched with the terpene product, is poured into Petri dishes (diameter 9 cm, filled with 20 ml of medium). The agar-comprising medium solidifies on cooling. The Petri dishes are then inoculated with plugs, with a diameter of 6 mm, withdrawn from the edge of a culture of the tested fungus, which culture is obtained on Cristomalt medium.
(§3) Inoculation is carried out at 22° C.
(§4) The mycelial growth was determined periodically (5 to 15 days, according to the species of fungus).
(§5) The results are expressed in Table 3 below in terms of MIC, which is the content (in μg/ml) which makes it possible to obtain complete inhibition of mycelial growth.
(§6) In f act, each experiment was carried out several times, so that, for each terpene and for each species of fungus, a minimum value and a maximum value were obtained.

[3] = test system: Alternaria alternata; test: as above; conditions: AA
Procedure: as §1, §2, §3, §4, §5, §6

[4] = test system: Geocrichum candidum; test: as above; conditions: GC
Procedure: as §1, §2, §3, §4, §5, §6

[5] = test system: Botrytis cinerea; test: as above; conditions: BC
Procedure: as §1, §2, §3, §4, §5, §6

[6] = test system: Penicillium digitatum; test: as above; conditions: PD
Procedure: as §1, §2, §3, §4, §5, §6

[7] = test system: Phlyctaena vagabonda (“Gloeosporium”); test: as above; conditions: PV
Procedure: as §1, §2, §3, §4, §5, §6

[8] = test system: Phytophtora parasitica; test: as above; conditions: PhP
Procedure: as §1, §2, §3, §4, §5, §6

[9] = test system: Fusarium oxysporum; test: as above
Procedure: as §1, §2, §3, §4, §5, §6

[10] = test system: Gliocladium roseum; test: as above; conditions: GR
Procedure: as §1, §2, §3, §4, §5, §6

[11] = test system: Penicillium expansum; test: Germination of the spores in vitro; conditions: PE;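 further: ++ germination like control and 0 no spores germinated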
Procedure: (§7) The activity of eugenol and of isoeugenol on the germination of the spores was evaluated in vitro and compared with that of other terpenes.
(§8) The procedure of Example 4 is used to do this, except that the concentration of eugenol and of isoeugenol was set at x μg/ml in the culture media used and that 50 μl of a suspension of spores, adjusted to 100,000 spores/ml, are deposited in each Petri dish.
(§9) The same experiment was carried out starting with a terpene-free culture medium (control test).
(§10) The results were evaluated using the following assessment criteria:
(§11) +: considerable reduction in the level of spores germinated
(§12) The results obtained for 3 different concentrations of terpenes in the culture medium, namely 40 μg/ml, 80 μg/ml and 1280 μg/ml, are listed in Tables 4, 5 and 6.

[12] = test system: Alternaria alternata; test: Germination of the spores in vitro; conditions: AA;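 further: ++ germination like control and 0 no spores germinated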
Procedure: as §7, §8, §9, §10, §11, §12

[13] = test system: Geocrichum candidum; test: Germination of the spores in vitro; conditions: GC
Procedure: as §7, §8, §9, §10, §11, §12

[14] = test system: Botrytis cinerea; test: Germination of the spores in vitro; conditions: BC
Procedure: as §7, §8, §9, §10, §11, §12

[15] = test system: Penicillium digitatum; test: Germination of the spores in vitro; conditions: PD
Procedure: as §7, §8, §9, §10, §11, §12

[16] = test system: Phlyctaena vagabonda (“Gloeosporium”); test: Germination of the spores in vitro; conditions: PV;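 further: ++ germination like control and 0 no spores germinated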
Procedure: as §7, §8, §9, §10, §11, §12

[17] = test system: Phytophtora parasitica; test: Germination of the spores in vitro; conditions: PhP
Procedure: as §7, §8, §9, §10, §11, §12

[18] = test system: Fusarium oxysporum; test: Germination of the spores in vitro; conditions: FO;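 further: ++ germination like control and 0 no spores germinated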
Procedure: as §7, §8, §9, §10, §11, §12

[19] = MIC expressed on the scale of Table 2
[20] = min-max range of several experiments, 22° C., read-out: MIC (content giving complete inhibition of mycelial growth)

SMILES: CC=Cc1ccc(O)c(OC)c1 [ISOEUGENOL, isoeugenol]
- growth in the culture medium with respect to the control ([1]; Concentration 20 μg/ml): +
- growth in the culture medium with respect to the control ([1]; Concentration 80 μg/ml): −
- growth in the culture medium with respect to the control ([1]; Concentration 320 μg/ml): −
- MIC ([1]; Pectobacterium carotovorum, Erwinia sp., read-out: MIC (concentration needed to completely inhibit the growth of the bacteria)): 20 to 40 µg/mL (≈ 122 to 244 µM)
- Inhibition grades [2, 19]: 7 (20-40)
- MIC ([2]; Penicillium expansum, min-max range of several experiments, 22° C., read-out: MIC (content giving complete inhibition of mycelial growth)): 20 to 40 µg/mL (≈ 122 to 244 µM)
- Inhibition grades [3, 19]: 7 (20-40)
- MIC ([3]; Alternaria alternata, min-max range of several experiments, 22° C., read-out: MIC (content giving complete inhibition of mycelial growth)): 20 to 40 µg/mL (≈ 122 to 244 µM)
- Inhibition grades [4, 19]: 8 (10-20)
- MIC [4, 20]: 10 to 20 µg/mL (≈ 60.9 to 122 µM)
- Inhibition grades [5, 19]: 7 (20-40)
- MIC ([5]; Botrytis cinerea, min-max range of several experiments, 22° C., read-out: MIC (content giving complete inhibition of mycelial growth)): 20 to 40 µg/mL (≈ 122 to 244 µM)
- Inhibition grades [6, 19]: 7 (20-40)
- MIC ([6]; Penicillium digitatum, min-max range of several experiments, 22° C., read-out: MIC (content giving complete inhibition of mycelial growth)): 20 to 40 µg/mL (≈ 122 to 244 µM)
- Inhibition grades [7, 19]: 7 (20-40)
- MIC [7, 20]: 20 to 40 µg/mL (≈ 122 to 244 µM)
- Inhibition grades [8, 19]: 7 (20-40)
- MIC [8, 20]: 20 to 40 µg/mL (≈ 122 to 244 µM)
- MIC ([9]; Fusarium oxysporum, FO, min-max range of several experiments, 22° C., read-out: MIC (content giving complete inhibition of mycelial growth)): 20 to 40 µg/mL (≈ 122 to 244 µM)
- Inhibition grades ([9]; OF, MIC expressed on the scale of Table 2): 7 (20-40)
- MIC ([10]; Clonostachys rosea, min-max range of several experiments, 22° C., read-out: MIC (content giving complete inhibition of mycelial growth)): 20 to 40 µg/mL (≈ 122 to 244 µM)
- Inhibition grades [10, 19]: 7 (20-40)
- germination of the spores ([11]; x = 40 μg/ml): 0
- germination of the spores ([11]; x = 80 μg/ml): 0
- germination of the spores ([11]; x = 1280 μg/ml): 0
- germination of the spores ([12]; x = 40 μg/ml): 0
- germination of the spores ([12]; x = 80 μg/ml): 0
- germination of the spores ([12]; x = 1280 μg/ml): 0
- germination of the spores ([13]; x = 40 μg/ml): 0
- germination of the spores ([13]; x = 80 μg/ml): 0
- germination of the spores ([13]; x = 1280 μg/ml): 0
- germination of the spores ([14]; x = 40 μg/ml): ++
- germination of the spores ([14]; x = 80 μg/ml): 0
- germination of the spores ([14]; x = 1280 μg/ml): 0
- germination of the spores ([15]; x = 40 μg/ml): 0
- germination of the spores ([15]; x = 80 μg/ml): 0
- germination of the spores ([15]; x = 1280 μg/ml): 0
- germination of the spores ([16]; x = 40 μg/ml): 0
- germination of the spores ([16]; x = 80 μg/ml): 0
- germination of the spores ([16]; x = 1280 μg/ml): 0
- germination of the spores ([17]; x = 40 μg/ml): 0
- germination of the spores ([17]; x = 80 μg/ml): 0
- germination of the spores ([17]; x = 1280 μg/ml): 0
- germination of the spores ([18]; x = 40 μg/ml): 0
- germination of the spores ([18]; x = 80 μg/ml): 0
- germination of the spores ([18]; x = 1280 μg/ml): 0
